The text below walks through data of patent publication US5610185A, “Method for the treatment of hyperproliferative epithelial skin diseases by topical application of hydroxylated aromatic protein cross-linking compounds” (The United States of America as represented by the …, priority 1995, dated 1997).

“Also recorded” adds a separate entry of the source.

The subject of data set [1] is SP-1 benign tumor mouse keratinocytes. In words: Cornified envelope (cross-linked protein) assay, SP-1 cells. It counts as cell-based. The text has this:
FIG. 1. MC Increases Cross-linked Protein in Epidermal Cell Lines. Black squares represent HPV 18 human epithelial keratinocytes; black circles represent SV 40 infected human keratinocytes; black triangles represent (SQCC-Y1) cells; white triangles represent (SP-1) benign tumor mouse keratinocytes; white squares represent (308 cells) benign mouse keratinocytes; and white circles represent (I-7) cells mouse squamous cell carcinoma.
FIGS. 2A and 2B, 2C and 2D show color phase contrast photographs. SP-1 cells were treated with vehicle (A and C) or 250 μM MC (B and D) for 48 hours. In A and B phase contrast photomicrographs were taken.
Primary mouse keratinocytes were isolated from BALB/c newborn mouse skin. […]
(§1) Cells were incubated with MC for 48 hours, then cross-linked protein was isolated and measured as described in Example 1.
(§2) The assay measures insoluble cross-linked protein envelopes as described (Hough-Monroe et al. Analytical biochem., 199, 25-28, 1991), with modifications as follows. […] Absorbance of eluate was measured on a Titertek plate reader at 600 nm.

For data set [2], the system named is A431 human epidermoid carcinoma cells. Nature of the data set: Cornified envelope (cross-linked protein) assay, A431 cells. It is filed as cell-based.
Excerpt: FIG. 5. Cross-linked Protein Production vs Growth Inhibition in A431 ([…]) Cells. Cell growth is represented by black circles and crosslinked protein production by white circles. Results are ±SD (n=3) of one experiment, representative of three.
Primary mouse keratinocytes were isolated from BALB/c newborn mouse skin. Primary keratinocytes, the benign neoplastic keratinocyte cell lines 308 and SP-1 (Strickland et al, Cancer Res., 48, 165-169, 1988) and the mouse squamous cell carcinoma line 1-7 (Greenhalgh et al., Proc. Natl. Acad. Sci., 87, 643-647, 1990) were grown in Eagle's minimal essential medium with 8% fetal calf serum (FCS) (chelexed) and penicillin 20 iu/ml, streptomycin 20 ug/ml (P/S). […]
as §1, §2
Cells were seeded at low density and were treated with MC for 3 days. Cells were then counted and increase in cell number was compared to untreated controls, or cells were processed for cross-linked protein (FIG. 5).

The subject of another data set is NIH 3T3 fibroblasts. In words: Protein envelope formation in NIH 3T3 fibroblasts. It is filed as cell-based.
The subject of data set [3] is SP-1 cell tumors grafted on athymic nude mice. Nature of the data set: Grafted SP-1 cell tumor formation in nude mice. It is filed as in vivo, mouse. The following applies: topical MC, 1 mM and 100 mM; twice weekly for two weeks or 5 days each week for three weeks. The method, then: FIGS. 10A and 10B. […] Numbers above bars denote the number of animals with tumors/the number of animals in the group. In panel A, MC was applied twice weekly for two weeks. In panel B, MC was applied on 5 days each week for three weeks.
Skin grafting was performed on athymic nude mice using 0.5×10^6 SP-1 cells with 8×10^6 newborn SENCAR mouse dermal fibroblasts as described (Strickland et al., Carcinogenesis, 14, 205, 1993). Domes (plastic covers placed over the site of skin grafting) were removed one week after grafting, and after a further week, topical application of MC commenced. The agent was applied in 25 ul 90% acetone, 10% DMSO vehicle. Weekly, tumor measurements were recorded up to 5 weeks after grafting.
Grafting was performed as described above. Tumors were measured using calipers at the termination of the experiment and tumors were fixed and sections were taken to confirm the tumor phenotype by microscopy.

The subject of data set [4] is primary mouse keratinocytes. In words: MTT cytotoxicity assay. It is filed as cell-based. The following applies: within 4 hours, medium with 1.4 mM Ca2+. The method, then:
(§3) FIGS. 3A and 3B. A: Time course for cornification of primary mouse keratinocytes in response to MC. Boxes represent […] Ca^2+, triangles represent 100 μM MC, 1.4 mM Ca^2+, and solid circles represent 1 mM MC, 1.4 mM Ca^2+. […] Cells were incubated in medium with 1.4 mM Ca^2+ and MC for 4 hours, then were incubated with MTT (0.5 mg/ml in medium) for a further 4 hours before determination of formazan production.
MTT is a dye which is reduced by mitochondrial dehydrogenase enzymes to a blue formazan product. Ability of cells to reduce MTT can be used to measure cell viability (Mosmann T., J. Immunol. Methods, 65, 55-63, 1983). Cells were incubated in 96 well plates with or without MC for the indicated time, then were incubated for a further 4 hours with 0.5 mg/ml MTT. Medium was removed and 88.9% DMSO, 11.11% glycine buffer (100 mM glycine, 100 mM NaCL pH 10.5) was added to each well. Plates were shaken for 20 minutes to allow formazan dissolution, then absorbance was measured on a plate reader at 570 nm.
(Tetrazolium dyes change colour on reduction, which living cells bring about.)

Data set [5] has as its system primary mouse keratinocytes. In words: Cornified envelope (cross-linked protein) assay, primary mouse keratinocytes. It is filed as cell-based. How it is done:
as §3
Primary mouse keratinocytes were isolated from BALB/c newborn mouse skin. Primary keratinocytes, the benign neoplastic keratinocyte cell lines 308 and SP-1 (Strickland et al, Cancer Res., 48, 165-169, 1988) and the mouse squamous cell carcinoma line 1-7 (Greenhalgh et al., Proc. Natl. Acad. Sci., 87, 643-647, 1990) were grown in Eagle's minimal essential medium with 8% fetal calf serum (FCS) (chelexed) and penicillin 20 iu/ml, streptomycin 20 ug/ml (P/S). Unless otherwise indicated, the Ca^2+ concentration in medium was adjusted to 0.05 mM (Hennings et al., Cells, 19, 245-254, 1980). A431 human epidermoid carcinoma cells were obtained from ATCC, Rockville, Md., and were routinely passaged in DMEM with 10% FCS, P/S, glutamine (2 mM) and pyruvate (1 mM). SQCC-Y1 human squamous carcinoma cells and non-tumorigenic HPV 18 and SV 40 infected human keratinocytes were kindly donated by Dr. James Rheinwald of Harvard University, Boston, Mass. and Dr. Richard Schlegel of Georgetown University, Washington D.C. respectively. Human cells were cultured in DMEM/Ham's F12 1:1, 10% FCS, P/S and epidermal growth factor 10 ng/ml.
Primary mouse keratinocytes were incubated with MC for 0, 0.5, 1, 4 and 48 hours and were processed as follows.
The assay measures insoluble cross-linked protein envelopes as described (Hough-Monroe et al. Analytical biochem., 199, 25-28, 1991), with modifications as follows. Cornified envelopes were prepared by scraping monolayers into 2% sodium dodecylsulphate (SDS), 20 mM dithiothreitol (DTT) in phosphate buffered saline (PBS). Unattached cells were pelleted from medium and were resuspended in SDS/DTT and pooled with attached cells. Samples were boiled for 10 mins. Cornified envelope samples were examined under the microscope using phase contrast optics or were applied to an RC60 membrane (Schleicher and Schuell, Keene, N.H.) on a 96-well dot-blot apparatus attached to a vacuum. Samples were washed three times with SDS/DTT and the resultant protein spots on RC60 membrane were fixed and stained as described. Sports were excised and eluted with 1% NH3 OH concentrated solution, 66% methanol (200 ul) overnight. Absorbance of eluate was measured on a Titertek plate reader at 600 nm.
Cells were seeded at low density and were treated with MC for 3 days. Cells were then counted and increase in cell number was compared to untreated controls, or cells were processed for cross-linked protein.
Inhibitors were added 30 mins before MC or stsp (FIG. 6). Cross-linked protein was measured by the cornified envelope assay, described in Example 2.

`COC(=O)C=Cc1cc(O)ccc1O` [MC, methyl 2,5-dihydroxycinnamate]: in data set [1] (SP-1, 250 μM, 48 hours), the “formation of cross-linked cornified envelopes (phase contrast)” value is “formation of cross-linked cornified envelopes”. The “cross-linked protein (envelope production)” value is “induced crosslinked envelope production; also recorded: increased cross-linked protein in a dose-dependent manner” in data set [1] (SP-1, 48 h, 0.1-1 mM); “induced crosslinked envelope production; also recorded: increased cross-linked protein in a dose-dependent manner” in data set [2] (A431, 48 h, 0.1-1 mM); “induced crosslinked envelope production; also recorded: increased cross-linked protein in a dose-dependent manner” in data set [5] (primary mouse keratinocytes, 48 h, 0.1-1 mM). Also, the minimal effective concentration was at least 250 µM in data set [2] (Homo sapiens, A-431, 72 h, A431, 3 days, read-out: concentration at which protein cross-linking is evident) and over 50 µM in data set [5] (Keratinocyte, 72 h, primary mouse keratinocytes, 3 days, read-out: concentration required to produce protein cross-linking). The “effect of DTT on cross-linking by MC” value in the data set with NIH 3T3 fibroblasts (3T3 cells, simultaneous DTT 20 mM, 37° and 4° C.) was “prevented cross-linking”. For the same compound, in the data set on NIH 3T3 fibroblasts (even when incubated at 4° C. in phosphate buffered saline), the “protein envelopes induced in NIH 3T3 fibroblasts” value was “induced protein envelopes”. Also, in data set [3], the “growth / formation of grafted SP-1 tumors” value is recorded as “inhibited the growth of tumors; also recorded: inhibits Grafted SP-1 cell Tumor Formation; also recorded: inhibit tumor formation”. In addition, the “MTT reduction / cell death” value in data set [4] was “cell death; also recorded: Inhibits MTT Reduction”. The “cornification after 48 hours” value in data set [5] (100 μM, 48 hours) is listed as “effective”; in data set [5] (1 mM, 48 hours), “effective”. For the same compound, in data set [5] (1 mM, primary mouse keratinocytes), the “time within which cornification / cross-linking occurs or commences” value was at most 4 h. Besides, the “cross-linked protein at 4° C. and 37° C.” value in data set [5] (4° C. and 37° C., 48 hours) was “took place at 4 °C and 37 °C; also recorded: Induces Cross-linked protein; also recorded: able to induce cross-linked protein effectively at 4° or 37 °C”. Besides, the “effect of transglutaminase inhibitors on cross-linking activity” value in data set [5] (LTB 2 and HPB 2 at 100 μM, MC 75 or 1000 μM or staurosporine 10 nM, 48 hours) is listed as “not affected by transglutaminase inhibitors; also recorded: not inhibited by transglutaminase (TGase) inhibitors; also recorded: do not Prevent Protein Cross-linking”.
